Assay results: patent US20260297060A1, “COMPOUNDS FOR THE DEGRADATION OF MUTANT BRAF” (C4 THERAPEUTICS, INC., priority 2023, published 2026)
Where two headings read alike, the source gives them in different places.

Target: T1, BRAF V600E (Homo sapiens, UniProt P15056+Q96SW2, V600E)
T1 construct: knock-in of the HiBiT tag to the endogenous BRAF V600E locus; host or cells: A375.10 (A375 clonal line, CRISPR HiBiT knock-in at the endogenous BRAF V600E locus)
Assay: BRAF V600E HiBiT Degradation Assay
Format: cell-based
Summary of the method: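 Endogenous HiBiT knock-in on BRAF V600E in A375 cells (clone A375.10); 11-point half-log series, top 10 μM, 2, 6 or 24 h at 37° C. Lytic HiBiT luminescence, background-subtracted, normalized to DMSO; 4-parameter fit gives DC50, Emax (residual protein) and IP (inflection point).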

[1] = A375.10 cells, BRAF V600E, 2 hours, inflection point, read-out: HiBiT-Degradation A375.10 BRAF 2 hours IP
[2] = A375.10 cells, BRAF V600E, 2 hours, read-out: HiBiT-Degradation A375.10 BRAF 2 hours DC50
[3] = A375.10 cells, BRAF V600E, 6 hours, inflection point, read-out: HiBiT-Degradation A375.10 BRAF 6 hours IP
[4] = A375.10 cells, BRAF V600E, 6 hours, read-out: HiBiT-Degradation A375.10 BRAF 6 hours DC50
[5] = A375.10 cells, BRAF V600E, 6 hours, residual protein remaining, read-out: HiBiT-Degradation A375.10 BRAF 6 hours Emax
[6] = A375.10 cells, HiBiT, BRAF V600E, 24 hours, read-out: HiBiT-Degradation A375.10 BRAF 24 hours DC50
[7] = A375.10 cells, HiBiT, BRAF V600E, 24 hours, read-out: HiBiT-Degradation A375.10 BRAF 24 hours Emax
[8] = A375.10 cells, HiBiT, BRAF V600E, 24 hours, read-out: HiBiT-Degradation A375.10 BRAF 24 hours IP
[9] = read-out: HiBiT-Degradation A375.10 BRAF 2 hours Emax, A375.10 cells, BRAF V600E, 2 hours, residual protein remaining
[10] = A375.10 cells, BRAF V600E, 2 hours, residual protein remaining, read-out: HiBiT-Degradation A375.10 BRAF 2 hours Emax

T1 sequence (P15056 whole entry V600E): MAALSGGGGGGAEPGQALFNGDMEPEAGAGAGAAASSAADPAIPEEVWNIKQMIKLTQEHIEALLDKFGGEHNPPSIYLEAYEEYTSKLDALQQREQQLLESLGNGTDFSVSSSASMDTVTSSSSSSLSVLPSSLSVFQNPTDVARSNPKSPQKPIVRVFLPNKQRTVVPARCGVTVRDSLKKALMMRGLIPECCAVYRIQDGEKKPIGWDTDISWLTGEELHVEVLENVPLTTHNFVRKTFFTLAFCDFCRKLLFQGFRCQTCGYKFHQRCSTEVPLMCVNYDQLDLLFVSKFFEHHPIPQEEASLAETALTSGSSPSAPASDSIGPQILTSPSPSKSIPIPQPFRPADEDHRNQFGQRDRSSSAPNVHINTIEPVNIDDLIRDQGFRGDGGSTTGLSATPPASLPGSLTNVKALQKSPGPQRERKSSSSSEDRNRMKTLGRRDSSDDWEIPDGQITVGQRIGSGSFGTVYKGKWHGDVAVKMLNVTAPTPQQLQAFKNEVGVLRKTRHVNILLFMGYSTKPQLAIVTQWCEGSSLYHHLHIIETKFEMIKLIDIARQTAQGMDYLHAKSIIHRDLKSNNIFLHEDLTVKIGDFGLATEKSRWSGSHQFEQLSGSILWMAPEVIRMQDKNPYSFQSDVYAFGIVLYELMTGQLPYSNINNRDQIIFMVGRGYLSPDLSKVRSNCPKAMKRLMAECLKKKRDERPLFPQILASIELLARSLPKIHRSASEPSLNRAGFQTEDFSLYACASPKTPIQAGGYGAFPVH
T1 sequence (Q96SW2 whole entry): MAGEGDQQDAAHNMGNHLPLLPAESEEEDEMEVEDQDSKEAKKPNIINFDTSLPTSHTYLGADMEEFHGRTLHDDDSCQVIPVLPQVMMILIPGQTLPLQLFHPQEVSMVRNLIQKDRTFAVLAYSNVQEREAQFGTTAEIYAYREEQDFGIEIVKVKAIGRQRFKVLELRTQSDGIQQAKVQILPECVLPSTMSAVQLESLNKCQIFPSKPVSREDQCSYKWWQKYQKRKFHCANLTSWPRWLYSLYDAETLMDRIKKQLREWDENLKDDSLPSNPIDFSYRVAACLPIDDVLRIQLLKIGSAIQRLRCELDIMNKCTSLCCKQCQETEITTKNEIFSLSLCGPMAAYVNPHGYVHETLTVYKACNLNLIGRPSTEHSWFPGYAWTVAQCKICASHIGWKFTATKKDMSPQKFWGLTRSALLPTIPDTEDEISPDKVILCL
T1 sequence (Q16531 whole entry partner): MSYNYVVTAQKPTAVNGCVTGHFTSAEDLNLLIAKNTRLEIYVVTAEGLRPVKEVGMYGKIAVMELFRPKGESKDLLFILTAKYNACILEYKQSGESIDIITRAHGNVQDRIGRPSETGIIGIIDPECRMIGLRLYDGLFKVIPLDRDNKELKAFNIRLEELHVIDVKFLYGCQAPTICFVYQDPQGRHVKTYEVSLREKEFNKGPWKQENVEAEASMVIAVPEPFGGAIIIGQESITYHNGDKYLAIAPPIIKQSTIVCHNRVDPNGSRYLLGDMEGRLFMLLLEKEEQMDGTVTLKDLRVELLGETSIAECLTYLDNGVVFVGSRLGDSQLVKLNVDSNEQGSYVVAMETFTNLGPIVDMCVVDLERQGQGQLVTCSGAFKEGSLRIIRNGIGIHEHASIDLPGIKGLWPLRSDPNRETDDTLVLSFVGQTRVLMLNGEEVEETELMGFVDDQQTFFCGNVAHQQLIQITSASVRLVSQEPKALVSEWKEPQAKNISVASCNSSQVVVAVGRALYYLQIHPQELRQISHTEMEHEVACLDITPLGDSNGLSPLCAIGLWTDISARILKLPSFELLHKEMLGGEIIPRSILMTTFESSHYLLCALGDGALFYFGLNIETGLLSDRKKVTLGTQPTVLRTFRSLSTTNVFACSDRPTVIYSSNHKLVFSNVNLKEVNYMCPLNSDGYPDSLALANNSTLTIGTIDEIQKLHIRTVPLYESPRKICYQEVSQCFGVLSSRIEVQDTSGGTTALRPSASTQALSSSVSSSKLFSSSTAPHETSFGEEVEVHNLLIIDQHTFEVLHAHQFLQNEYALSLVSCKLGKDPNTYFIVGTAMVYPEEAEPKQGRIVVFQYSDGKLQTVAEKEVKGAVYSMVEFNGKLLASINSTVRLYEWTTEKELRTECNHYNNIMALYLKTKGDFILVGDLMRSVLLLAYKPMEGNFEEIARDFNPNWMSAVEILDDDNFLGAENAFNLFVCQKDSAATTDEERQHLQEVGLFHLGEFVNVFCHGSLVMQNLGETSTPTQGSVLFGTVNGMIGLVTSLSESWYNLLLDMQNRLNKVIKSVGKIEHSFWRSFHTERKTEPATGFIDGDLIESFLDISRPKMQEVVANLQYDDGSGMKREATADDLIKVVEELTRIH

SMILES | DC50 [1] [µM] | DC50 [2] [µM] | DC50 [3] [µM] | DC50 [4] [µM] | Emax [5] [%] | DC50 [6] [µM] | Emax [7] [%] | DC50 [8] [µM] | Emax [9] [%] | Emax [10] [%]
CN(CCO)S(=O)(=O)Nc1ccc(F)c(Oc2ccc3ncn(C4CC5(CCN(C6CCC(c7cc8c(cc7F)c(N7CCC(=O)NC7=O)nn8C)CC6F)CC5)C4)c(=O)c3c2)c1C#N (single isomer, unassigned) [Compound 145, 6-[2-cyano-6-fluoro-3-[[2-hydroxyethyl(methyl)sulfamoyl]amino]phenoxy]-3-[7-[4-[3-(2,4-dioxohexahydropyrimidin-1-yl)-5-fluoro-1-methyl-indazol-6-yl]-2-fluoro-cyclohexyl]-7-azaspiro[3.5]nonan-2-yl]-4-oxo-quinazoline] | < 1 | < 1 | < 1 | < 1 | < 50 | < 1 | < 50 | < 1 | < 50 | –
CCN(C)S(=O)(=O)Nc1ccc(F)c(Oc2ccc3ncc([C@H]4COC5(CCN(C6CCC(c7cc8c(cc7F)c(N7CCC(=O)NC7=O)nn8C)CC6F)CC5)C4)nc3c2)c1C#N (single isomer, unassigned) [Compound 160] | < 1 | < 1 | – | – | – | – | – | – | < 50 | –
CCN(C)S(=O)(=O)Nc1ccc(F)c(Oc2ccc3ncn(C4CC5(CCN(C6CCC(c7cc8c(cc7F)c(N7CCC(=O)NC7=O)nn8C)CC6)CC5)C4)c(=O)c3c2)c1F (single isomer, unassigned) [Compound 178, 3-[7-[4-[3-(2,4-dioxohexahydropyrimidin-1-yl)-5-fluoro-1-methyl-indazol-6-yl]cyclohexyl]-7-azaspiro[3.5]nonan-2-yl]-6-[3-[[ethyl(methyl)sulfamoyl]amino]-2,6-difluoro-phenoxy]-4-oxo-quinazoline] | < 1 | < 1 | < 1 | < 1 | < 50 | < 1 | < 50 | < 1 | – | < 50
CCN(C)S(=O)(=O)Nc1ccc(F)c(Oc2ccc3ncc(C4CC5(CCN(C6CCC(c7cc8c(cc7F)c(N7CCC(=O)NC7=O)nn8C)CC6)CC5)C4)nc3c2)c1C#N (single isomer, unassigned) [Compound 180, 7-[2-cyano-3-[[ethyl(methyl)sulfamoyl]amino]-6-fluoro-phenoxy]-2-[7-[4-[3-(2,4-dioxohexahydropyrimidin-1-yl)-5-fluoro-1-methyl-indazol-6-yl]cyclohexyl]-7-azaspiro[3.5]nonan-2-yl]quinoxaline] | < 1 | < 1 | < 1 | < 1 | < 50 | < 1 | < 50 | < 1 | < 50 | –
CCN(C)S(=O)(=O)Nc1ccc(F)c(C(=O)c2ccc3ncn(C4CC5(CCN(C6CCC(c7cc8c(cc7F)c(N7CCC(=O)NC7=O)nn8C)CC6)CC5)C4)c(=O)c3c2)c1F (single isomer, unassigned) [Compound 182, 3-[7-[4-[3-(2,4-dioxohexahydropyrimidin-1-yl)-5-fluoro-1-methyl-indazol-6-yl]cyclohexyl]-7-azaspiro[3.5]nonan-2-yl]-6-[3-[[ethyl(methyl)sulfamoyl]amino]-2,6-difluoro-benzoyl]-4-oxo-quinazoline] | < 1 | 1 to 10 | < 1 | < 1 | < 50 | < 1 | < 50 | < 1 | – | 50 to 90
CCN(C)S(=O)(=O)Nc1ccc(F)c(Oc2ccc3ncn(C4CC5(CCN(C6CCC(c7cc8c(cc7F)c(N7CCC(=O)NC7=O)nn8C)CC6F)CC5)C4)c(=O)c3c2)c1F (single isomer, unassigned) [Compound 184] | < 1 | < 1 | < 1 | < 1 | < 50 | < 1 | < 50 | < 1 | – | < 50
